The values below come from patent US4812562A, “Cephalosporin derivatives” (Taisho Pharmaceutical Co., Ltd., priority 1985, dated 1989).

SMILES strings stand for the structures. In brackets after ≈: the same amount, converted by molar mass. Where a name gives a salt, the structure may show the parent alone. Read-outs that look alike come from different tables or passages of the source.

Data set [1] deals with Serratia marcescens IID 618. The data set can be described thus: MIC by agar plate dilution method, Serratia marcescens IID 618. In kind it is cell-based. Conditions: IID618. Here is the method:
(§1) Subsequently, there were tested the minimal inhibitory concentration (MIC) of the compounds of the present invention against various bacteria and the concentration of the compound in blood after oral administration to rats, and the results are shown.
(§2) The antibacterial activities of the compound of the present invention against various bacteria (inoculum size: 10^6 cells/ml) were tested by the agar plate dilution method, and the results are shown in the following Table 1.

Another data set deals with Bacillus cereus S 1101. The data set can be described thus: MIC by agar plate dilution method, Bacillus cereus S 1101. In kind it is cell-based. Conditions: S1101. On the procedure:
as §1, §2

In data set [2] the test system is Staphylococcus aureus FDA 209P-JC. The data set can be described thus: MIC by agar plate dilution method, Staphylococcus aureus FDA 209P-JC. In kind it is cell-based. Conditions: FDA209P, inoculum size 10^6 cells/ml. On the procedure:
as §1, §2

For data set [3], the system named is Morganella morganii IID 602. The data set can be described thus: MIC by agar plate dilution method, Morganella morganii IID 602. In kind it is cell-based. Conditions: IID602. Here is the method:
as §1, §2

Data set [4] relates to Klebsiella pneumoniae T 25. The data set can be described thus: MIC by agar plate dilution method, Klebsiella pneumoniae T 25. In kind it is cell-based. As to conditions: T25, inoculum size 10^6 cells/ml. On the procedure: as §1, §2
For data set [5], the system named is Escherichia coli NIHJ JC-2. The data set can be described thus: MIC by agar plate dilution method, Escherichia coli NIHJ JC-2. In kind it is cell-based. Conditions: NIHJJC2, inoculum size 10^6 cells/ml. Here is the method: as §1, §2
Data set [6] is described as follows: concentration of the compound in blood after oral administration to rats. The format is in vivo, Male wister rats. As to conditions: rat, 50 mg/kg, bioassay (Escherichia coli SC507). On the procedure: Male wister rats (7 weeks old) were administered orally with the test compound, and the change of the concentration of the compound in blood was measured.
Dosage of the test compound: 50 mg/kg
Quantitative method: Bioassy
(test bacterium: Escherichia coli SC507)

The mark [7] stands for this setting: Serratia marcescens IID 618, inoculum size 10^6 cells/ml, read-out: MIC.
Where [8] appears, read: Bacillus cereus S 1101, inoculum size 10^6 cells/ml, read-out: MIC.
Setting [9] is: Morganella morganii IID 602, inoculum size 10^6 cells/ml, read-out: MIC.

As usually defined, the MIC is the lowest concentration found to suppress growth. Consider `CC1=C(C(=O)O)N2C(=O)[C@@H](NC(=O)[C@H](N)c3ccccc3)[C@H]2SC1` [YY, Cefalexin, reference compound], for which the minimum inhibitory concentration (MIC) in data set [1] (Serratia marcescens) is over 400 µg/mL; with Bacillus cereus S 1101 (Bacillus cereus) it was at most 0.1 µg/mL; in data set [2], 0.78 µg/mL (≈ 2.25 µM); in data set [3] (Morganella morganii), 200 µg/mL (≈ 576 µM).

On to `Nc1nc(/C(=N/OCC(=O)O)C(=O)N[C@@H]2C(=O)N3C(C(=O)O)=C(SCc4ccccn4)CS[C@H]23)cs1` [E], for which the MIC is 1.56 µg/mL (≈ 2.83 µM) in data set [4]; 0.39 µg/mL (≈ 0.708 µM) in data set [5]; 0.78 µg/mL (≈ 1.42 µM) in data set [1] (setting [7]); 0.39 µg/mL (≈ 0.708 µM) in the data set on Bacillus cereus S 1101 (setting [8]); 12.5 µg/mL (≈ 22.7 µM) in data set [2]; at most 0.1 µg/mL in data set [3] (setting [9]).

As to `NC(=O)OCCSC1=C(C(=O)O)N2C(=O)[C@@H](NC(=O)/C(=N\OCC(=O)O)c3csc(N)n3)[C@H]2SC1` [G, 7β-{α-(2-aminothiazole-4-yl)-α-[(Z)-carboxymethoxyimino]acetamido}-3-(2-carbamoyloxy)ethylthio-3-cephem-4-carboxylic acid sodium salt], the MIC was 6.25 µg/mL in data set [4]; 0.39 µg/mL in data set [5]; 0.78 µg/mL in data set [1] (setting [7]); 0.2 µg/mL in the data set with Bacillus cereus S 1101 (setting [8]); 12.5 µg/mL in data set [2]; at most 0.1 µg/mL in data set [3] (setting [9]).

For `CSC1=C(C(=O)O)N2C(=O)[C@@H](NC(=O)/C(=N\OCC(=O)O)c3csc(N)n3)[C@H]2SC1` [XX, 7{(2-aminothiazole-4-yl)-[(Z)carboxy-methoxyimino]acetamido3-methylthio-3cephem-4-carboxylic acid sodium salt, reference compound], the MIC in data set [4] amounted to 25 µg/mL; in data set [5], 1.56 µg/mL; in data set [1] (setting [7]), 1.56 µg/mL; with Bacillus cereus S 1101 (setting [8]), 0.78 µg/mL; in data set [2], 50 µg/mL; in data set [3] (setting [9]), 0.39 µg/mL.

Take `NCCCSC1=C(C(=O)O)N2C(=O)[C@@H](NC(=O)/C(=N\OCC(=O)O)c3csc(N)n3)[C@H]2SC1` [D]: the MIC in data set [4] was found to be 3.13 µg/mL (≈ 6.06 µM); in data set [5] it was 0.78 µg/mL (≈ 1.51 µM); in data set [1] (setting [7]), 0.39 µg/mL (≈ 0.755 µM); in the data set on Bacillus cereus S 1101 (setting [8]) it was 0.2 µg/mL (≈ 0.387 µM); in data set [2] it was 6.25 µg/mL (≈ 12.1 µM); in data set [3] (setting [9]), 0.39 µg/mL (≈ 0.755 µM). Also, the concentration at 1 h in data set [6] amounted to 11900 ng/mL. The compound further gave a concentration at 2 h in data set [6] of 16600 ng/mL. Further, the concentration at 4 h in data set [6] was found to be 15400 ng/mL.

As to `Nc1nc(/C(=N/OCC(=O)O)C(=O)N[C@@H]2C(=O)N3C(C(=O)O)=C(SCCF)CS[C@H]23)cs1` [C], the MIC in data set [4] is 25 µg/mL (≈ 49.5 µM); in data set [5] it was 1.56 µg/mL (≈ 3.09 µM); in data set [1] (setting [7]) it was 1.56 µg/mL (≈ 3.09 µM); in the data set on Bacillus cereus S 1101 (setting [8]) it was 0.2 µg/mL (≈ 0.396 µM); in data set [2], 6.25 µg/mL (≈ 12.4 µM); in data set [3] (setting [9]), under 0.1 µg/mL. Moreover, the concentration at 1 h in data set [6] turned out to be 25600 ng/mL. The compound also yielded a concentration at 2 h in data set [6] of 9100 ng/mL. This compound also yielded a concentration at 4 h in data set [6] of 4000 ng/mL.

Take `N#CCSC1=C(C(=O)O)N2C(=O)[C@@H](NC(=O)/C(=N\OCC(=O)O)c3csc(N)n3)[C@H]2SC1` [A]: the minimum inhibitory concentration (MIC) was 25 µg/mL (≈ 50.1 µM) in data set [4]; 1.56 µg/mL (≈ 3.13 µM) in data set [5]; 0.78 µg/mL (≈ 1.56 µM) in data set [1] (setting [7]); 0.2 µg/mL (≈ 0.401 µM) in the data set with Bacillus cereus S 1101 (setting [8]); 6.25 µg/mL (≈ 12.5 µM) in data set [2]; under 0.1 µg/mL in data set [3] (setting [9]). In data set [6], this compound displayed a concentration at 1 h of 28700 ng/mL. For the same compound, the concentration at 2 h in data set [6] was found to be 19500 ng/mL. The same compound showed a concentration at 4 h in data set [6] of 4300 ng/mL.

With `COCCSC1=C(C(=O)O)N2C(=O)[C@@H](NC(=O)/C(=N\OCC(=O)O)c3csc(N)n3)[C@H]2SC1` [B], the MIC was 6.25 µg/mL (≈ 12.1 µM) in data set [4]; 0.78 µg/mL (≈ 1.51 µM) in data set [5]; 1.56 µg/mL (≈ 3.01 µM) in data set [1] (setting [7]); 0.39 µg/mL (≈ 0.754 µM) with Bacillus cereus S 1101 (setting [8]); 25 µg/mL (≈ 48.3 µM) in data set [2]; at most 0.1 µg/mL in data set [3] (setting [9]).

`NC(=O)CCSC1=C(C(=O)O)N2C(=O)[C@@H](NC(=O)/C(=N\OCC(=O)O)c3csc(N)n3)[C@H]2SC1` [F]: the MIC in data set [4] was 12.5 µg/mL (≈ 23.6 µM); in data set [5] it was 1.56 µg/mL (≈ 2.94 µM); in data set [1] (setting [7]) it was 0.78 µg/mL (≈ 1.47 µM); with Bacillus cereus S 1101 (setting [8]), 0.2 µg/mL (≈ 0.377 µM); in data set [2], 12.5 µg/mL (≈ 23.6 µM); in data set [3] (setting [9]), 0.1 µg/mL (≈ 0.188 µM).
